The record followed here is US4987144A, “1,3-bis(1,2,4-triazol-1-yl)2-(4-trifluoromethylphenyl)propan-2-ol useful for the prevention and/or treatment of deep-seated mycosis” (SS Pharmaceutical Co., Ltd., priority 1989, dated 1991).

The subject of data set [1] is Candida albicans. Description: Antimycotic activities of similar compounds in a manner similar to Test 1, oral administration (Referential Test). It is filed as in vivo, Candida albicans (in male ICR mice). The settings on record: in Mus musculus, 336 h, read-out: T/C; for response vs control in vivo at 40 mg: Dose (mg) 40, oral. The procedure:
(§1) Male ICR mice of 4 weeks old were used as groups, each consisted of 5 mice. Each mouse was inoculated at caudal vein with 2.8×106^6 cells of Candida albicans. From one hour after the inoculation, each test compound was dissolved in 0.5 mλ of 0.06 N hydrochloric acid which had been added with "0.2% TO-10M" (trade name; product of Nikko Chemicals Co., Ltd.) and was orally administered once a day, four times in total. The mice were observed until the 14th day after the inoculation of the fungus. The average survival days of each group was compared with those of the control group to determine T/C (%). [formula]
In a manner similar to Test 1, antimycotic activities of each of the test compounds shown below in Table 2 were investigated. As will be readily envisaged from the results, practically no antimycotic activities were observed from the oral administration of those compounds.

Data set [2] deals with Candida albicans. As to the kind of experiment: Antimycotic activities: survival of mice inoculated with Candida albicans, oral administration (Test 1). The settings on record: for T/C: once a day, four times, average survival days vs control, to 14th day after inoculation. In kind it is in vivo, Candida albicans (in male ICR mice). As to the method:
as §1

Data set [3] in a line: Measurement of body weight variations (Test 2). It is filed as in vivo, male ICR mice. As to conditions: for body weight: 2.5 mg/Kg; for body weight change after administration (in words): group administered with the compound.
A short description of a further data set: Acute toxicity, oral. As to conditions: mouse, in vivo, mice, P.O.

As for `OC(Cn1cncn1)(Cn1cncn1)c1ccc(F)cc1OCc1ccc(F)cc1`, the response vs control in vivo at 40 mg in the data set with Candida albicans [1] worked out at 117%.
In general, T/C refers to the result in the treated group divided by that in the control group, in per cent. By LD50 is commonly meant the dose at which mortality reaches 50%. With `OC(Cn1cncn1)(Cn1cncn1)c1ccc(C(F)(F)F)cc1` [Triazole compound (I), 1,3-bis(1,2,4-triazol-l-yl)-2-(4-trifluoromethylphenyl)propan-2-ol], the values for the T/C in the data set with Candida albicans [2] (1.25 mg/kg), in the data set on Candida albicans [2] (2.5 mg/kg) and with Candida albicans [2] (5 mg/kg) were 186%, 385% and 450%, respectively. Also, in the data set on Candida albicans [2] (compared with fluconazole), the “apothanasia effects upon oral administration (in words)” value is “greater than fulconazole”. Further, the body weight was 21.0 g in data set [3] (0 days after administration); 20.6 g in data set [3] (1 day after administration); 21.4 g in data set [3] (2 days after administration); 22.2 g in data set [3] (3 days after administration); 23.0 g in data set [3] (4 days after administration); 23.3 g in data set [3] (5 days after administration). This molecule had a body weight in data set [3] (6 days after administration) of 23.1 g. For the same molecule, the “body weight change after administration (in words)” value in data set [3] is reported as “the body weight increased steadily”. Besides, in the data set “Acute toxicity, oral”, the LD50 stood at 1200 mg/kg.
For the molecule `OC(Cn1cncn1)(Cn1cncn1)c1cc(F)c(OCc2ccccc2)c(F)c1`, in the data set with Candida albicans [1], the response vs control in vivo at 40 mg came out at 73%.
As to `OC(Cn1cncn1)(Cn1cncn1)c1cc(C(F)(F)F)cc(C(F)(F)F)c1`, in the data set with Candida albicans [1] (Dose (mg) 20, oral), the response vs control in vivo at 20 mg came out at 118%.
Regarding `Oc1cc(F)c(F)cc1C(O)(Cn1cncn1)Cn1cncn1`, the response vs control in vivo at 40 mg in the data set on Candida albicans [1] was 125%.
In the case of `OC(Cn1cncn1)(Cn1cncn1)c1ccc(-c2ccc(F)cc2)cc1`, the response vs control in vivo at 40 mg in the data set with Candida albicans [1] is 136%.
For the molecule `CC(=O)Nc1ccc(C(O)(Cn2cncn2)Cn2cncn2)c(F)c1`, in the data set on Candida albicans [1], the response vs control in vivo at 40 mg was 82%.
`COc1c(F)cc(C(O)(Cn2cncn2)Cn2cncn2)cc1F`: the response vs control in vivo at 40 mg in the data set on Candida albicans [1] was 91%.
For `OC(Cn1cncn1)(Cn1cncn1)c1ccc(F)cc1F` [Fluconazole], the T/C was 143% with Candida albicans [2] (1.25 mg/kg), 379% in the data set on Candida albicans [2] (2.5 mg/kg) and 443% in the data set on Candida albicans [2] (5 mg/kg). In addition, in data set [3], the “body weight change after administration (in words)” value is given as “body weight reductions were observed”.
For `Oc1c(F)cc(C(O)(Cn2cncn2)Cn2cncn2)cc1F`, the response vs control in vivo at 40 mg with Candida albicans [1] was determined as 82%.
Still for that read-out and setting: for `OC(Cn1cncn1)(Cn1cncn1)c1ccc(F)cc1OCc1ccccc1` the value was 122%; for `N#Cc1ccc(C(O)(Cn2cncn2)Cn2cncn2)c(F)c1`, 81%.
On to `CCCOc1cc(F)ccc1C(O)(Cn1cncn1)Cn1cncn1`, for which the response vs control in vivo at 40 mg with Candida albicans [1] stood at 125%.
